Converted amounts (≈) assume the structure as drawn. Bridge positions count the residues as written; N and C are the ends. Square brackets hold non-standard residues; d marks the D form. Peptide text beside a SMILES is read from it. * marks the point of attachment. Ileψ(thiazoline)Cys = CC[C@H](C)[C@H](N)C1=N[C@H](C(=O)*)CS1; dOrn = NCCC[C@@H](N)C(=O)O
Tests used:
Format in all cases: functional
Listeria monocytogenes [1] = test: Antimicrobial activity against virR-deficient Listeria monocytogenes EGD-e assessed as growth inhibition after 16 hrs by broth dilution method relative to wild type
Listeria monocytogenes [2] = test: Antimicrobial activity against Listeria monocytogenes EGD-e at 10 ug after 16 hrs by disk diffusion assay; conditions: read-out: IZ
Listeria monocytogenes [3] = test: Antimicrobial activity against lisK-deficient Listeria monocytogenes EGD-e assessed as growth inhibition after 16 hrs by broth dilution method relative to wild type
Listeria monocytogenes [4] = test: Antimicrobial activity against Listeria monocytogenes EGD-e assessed as growth inhibition after 16 hrs by broth dilution method
Listeria monocytogenes [5] = test: Antimicrobial activity against telA-deficient Listeria monocytogenes EGD-e assessed as growth inhibition after 16 hrs by broth dilution method
Listeria monocytogenes [6] = test: Antimicrobial activity against anrB-deficient Listeria monocytogenes EGD-e assessed as growth inhibition after 16 hrs by broth dilution method relative to wild type
Listeria monocytogenes [7] = test: Antimicrobial activity against telA-deficient Listeria monocytogenes EGD-e assessed as growth inhibition after 16 hrs by broth dilution method relative to wild type
Listeria monocytogenes [8] = test: Antimicrobial activity against lisK-deficient Listeria monocytogenes EGD-e assessed as growth inhibition after 16 hrs by broth dilution method
Listeria monocytogenes [9] = test: Antimicrobial activity against mprF-deficient Listeria monocytogenes EGD-e assessed as growth inhibition after 16 hrs by broth dilution method relative to wild type
Listeria monocytogenes [10] = test: Antimicrobial activity against anrB-deficient Listeria monocytogenes EGD-e at 10 ug after 16 hrs by disk diffusion assay; conditions: read-out: IZ
Listeria monocytogenes [11] = test: Antimicrobial activity against anrB-deficient Listeria monocytogenes EGD-e assessed as growth inhibition after 16 hrs by broth dilution method
Listeria monocytogenes [12] = test: Antimicrobial activity against virR-deficient Listeria monocytogenes EGD-e assessed as growth inhibition after 16 hrs by broth dilution method
Listeria monocytogenes [13] = test: Antimicrobial activity against mprF-deficient Listeria monocytogenes EGD-e assessed as growth inhibition after 16 hrs by broth dilution method
Listeria monocytogenes [14] = test: Antimicrobial activity against Listeria monocytogenes EGD-e at 100 ug after 16 hrs by disk diffusion assay; conditions: read-out: IZ
Listeria monocytogenes [15] = test: Antimicrobial activity against anrB-deficient Listeria monocytogenes EGD-e at 100 ug after 16 hrs by disk diffusion assay; conditions: read-out: IZ
Listeria monocytogenes [16] = test: Antimicrobial activity against Listeria monocytogenes EGD-e at 30 ug after 16 hrs by disk diffusion assay; conditions: read-out: IZ
Listeria monocytogenes [17] = test: Antimicrobial activity against anrB-deficient Listeria monocytogenes EGD-e at 30 ug after 16 hrs by disk diffusion assay; conditions: read-out: IZ
Listeria monocytogenes [18] = test: Antimicrobial activity against Listeria monocytogenes EGD-e at 5 ug after 16 hrs by disk diffusion assay; conditions: read-out: IZ
Listeria monocytogenes [19] = test: Antimicrobial activity against anrB-deficient Listeria monocytogenes EGD-e at 5 ug after 16 hrs by disk diffusion assay; conditions: read-out: IZ
Listeria monocytogenes [20] = test: Antimicrobial activity against anrB-deficient Listeria monocytogenes EGD-e at 1 ug after 16 hrs by disk diffusion assay; conditions: read-out: IZ
Listeria monocytogenes [21] = test: Antimicrobial activity against Listeria monocytogenes EGD-e at 1 ug after 16 hrs by disk diffusion assay; conditions: read-out: IZ

| MIC (Listeria monocytogenes [4]) [µg/mL] | MIC (Listeria monocytogenes [11]) [µg/mL] | Structure (SMILES) | fold change (FC) (Listeria monocytogenes [6]) | zone of inhibition at 30 µg/disc (Listeria monocytogenes [16]) [mm] | zone of inhibition at 30 µg/disc (Listeria monocytogenes [17]) [mm] | also measured |
| --- | --- | --- | --- | --- | --- | --- |
| 256 (≈ 180 µM) | 32 (≈ 22.5 µM) | CC[C@H](C)[C@H](N)C1=N[C@H](C(=O)N[C@@H](CC(C)C)C(=O)N[C@H](CCC(=O)O)C(=O)N[C@H](C(=O)N[C@H]2CCCCNC(=O)[C@H](CC(N)=O)NC(=O)[C@@H](CC(=O)O)NC(=O)[C@H](Cc3cnc[nH]3)NC(=O)[C@@H](Cc3ccccc3)NC(=O)[C@H]([C@@H](C)CC)NC(=O)[C@@H](CCCN)NC2=O)[C@@H](C)CC)CS1 [BACITRACIN] ({Ileψ(thiazoline)Cys}-L[dE]IK[dOrn]I[dF]H[dD]N; lactam 4-C) | 8 |  |  | Ratio (Listeria monocytogenes [1]): -128; zone of inhibition at 10 µg/disc (Listeria monocytogenes [2]): 10.5 mm; Ratio (Listeria monocytogenes [3]): -2; MIC (Listeria monocytogenes [5]): 128 µg/mL (≈ 90 µM); Ratio (Listeria monocytogenes [7]): -2; MIC (Listeria monocytogenes [8]): 128 µg/mL (≈ 90 µM); Ratio (Listeria monocytogenes [9]): -4; zone of inhibition at 10 µg/disc (Listeria monocytogenes [10]): 20 mm; MIC (Listeria monocytogenes [12]): 2 µg/mL (≈ 1.41 µM); MIC (Listeria monocytogenes [13]): 64 µg/mL (≈ 45 µM) |
|  |  | CC1(C)S[C@@H]2[C@H](NC(=O)C(C(=O)O)c3ccccc3)C(=O)N2[C@H]1C(=O)O (stereo partly drawn) [CARBENICILLIN] |  |  |  | zone of inhibition at 100 µg/disc (Listeria monocytogenes [14]): 36.7 mm; zone of inhibition at 100 µg/disc (Listeria monocytogenes [15]): 43 mm |
|  |  | CO[C@@]1(NC(=O)CSCC#N)C(=O)N2C(C(=O)O)=C(CSc3nnnn3C)CS[C@@H]21 [CEFMETAZOLE] |  | 31.4 | 34.2 |  |
| 1 (≈ 2.86 µM) | 0.5 (≈ 1.43 µM) | CC1(C)S[C@@H]2[C@H](NC(=O)[C@H](N)c3ccccc3)C(=O)N2[C@H]1C(=O)O [AMPICILLIN] | 2 |  |  | zone of inhibition at 10 µg/disc (Listeria monocytogenes [2]): 32.8 mm; zone of inhibition at 10 µg/disc (Listeria monocytogenes [10]): 36.6 mm |
|  |  | N[C@@H](C(=O)N[C@@H]1C(=O)N2C(C(=O)O)=C(Cl)CS[C@H]12)c1ccccc1 [CEFACLOR ANHYDROUS] |  | 22.2 | 24.8 |  |
|  |  | CCN1CCN(C(=O)N[C@@H](C(=O)N[C@@H]2C(=O)N3[C@@H]2SC(C)(C)[C@@H]3C(=O)O)c2ccccc2)C(=O)C1=O [PIPERACILLIN] |  | 30.7 | 35.3 |  |
| 2.87 (≈ 6.76 µM) | 1.44 (≈ 3.39 µM) | CO/N=C(\C(=O)N[C@@H]1C(=O)N2C(C(=O)O)=C(COC(N)=O)CS[C@H]12)c1ccco1 [CEFUROXIME] | 2 | 21.3 | 24.8 |  |
|  |  | CC(=O)OCC1=C(C(=O)O)N2C(=O)[C@@H](NC(=O)Cc3cccs3)[C@H]2SC1 [CEPHALOTHIN] |  | 30.3 | 33.6 |  |
| 2 (≈ 0.924 µM) | 0.5 (≈ 0.231 µM) | C/C=C(/NC(=O)[C@H](CCCCN)NC(=O)[C@H](C)NC(=O)[C@H]1CS[C@@H](C)[C@@H](NC(=O)[C@H]2CSC[C@@H](NC(=O)[C@H](C)NC(=O)[C@@H](N)[C@@H](C)CC)C(=O)N[C@@H](CCCCN)C(=O)N[C@@H](Cc3ccccc3)C(=O)N[C@@H](CC(C)C)C(=O)N2)C(=O)N2CCC[C@H]2C(=O)NCC(=O)N1)C(=O)NCC(=O)N[C@@H]1CSC[C@H]2NC(=O)[C@H](Cc3ccc(O)cc3)NC(=O)[C@@H](CS/C=C/NC2=O)NC(=O)[C@H](CC(N)=O)NC(=O)[C@H](Cc2ccccc2)NC1=O [GALLIDERMIN] | 4 |  |  |  |
|  |  | CCN1CCN(C(=O)N[C@@H](C(=O)N[C@@H]2C(=O)N3C(C(=O)O)=C(CSc4nnnn4C)CS[C@H]23)c2ccc(O)cc2)C(=O)C1=O [CEFOPERAZONE] |  | 20.6 | 24 |  |
| 0.72 (≈ 2.15 µM) | 0.36 (≈ 1.08 µM) | CC1(C)S[C@@H]2[C@H](NC(=O)Cc3ccccc3)C(=O)N2[C@H]1C(=O)O [PENICILLIN G] | 2 |  |  | zone of inhibition at 5 µg/disc (Listeria monocytogenes [18]): 30.5 mm; zone of inhibition at 5 µg/disc (Listeria monocytogenes [19]): 34.7 mm |
|  |  | CC1=C(C(=O)O)N2C(=O)[C@@H](NC(=O)[C@H](N)C3=CCC=CC3)[C@H]2SC1 [CEPHRADINE] |  | 13.6 | 16.9 |  |
|  |  | CC(C)(O/N=C(\C(=O)N[C@@H]1C(=O)N2C(C(=O)[O-])=C(C[n+]3ccccc3)CS[C@H]12)c1csc(N)n1)C(=O)O [CEFTAZIDIME] |  | 6.1 | 7.8 |  |
|  |  | C[C@@H](O)[C@H]1C(=O)N2C(C(=O)O)=C(SCCNC=N)C[C@H]12 [IMIPENEM ANHYDROUS] |  | 39.7 | 42.3 |  |
| 2 (≈ 4.39 µM) | 1 (≈ 2.2 µM) | CO/N=C(\C(=O)N[C@@H]1C(=O)N2C(C(=O)O)=C(COC(C)=O)CS[C@H]12)c1csc(N)n1 [CEFOTAXIME] | 2 | 19.6 | 22.5 |  |
|  |  | Cc1onc(-c2ccccc2)c1C(=O)N[C@@H]1C(=O)N2[C@@H]1SC(C)(C)[C@@H]2C(=O)O [OXACILLIN] |  |  |  | zone of inhibition at 1 µg/disc (Listeria monocytogenes [20]): 11.9 mm; zone of inhibition at 1 µg/disc (Listeria monocytogenes [21]): 9.6 mm |
|  |  | C=C(NC(=O)[C@@H](NC(=O)[C@H](Cc1cnc[nH]1)NC(=O)[C@@H](NC(=O)[C@H](CO)NC(=O)[C@@H]1CS[C@@H](C)[C@H]2NC(=O)C(=C)NC(=O)[C@H](NC(=O)[C@H](CCCCN)NC(=O)[C@H](CCSC)NC(=O)[C@H](CC(N)=O)NC(=O)[C@@H]3CS[C@@H](C)[C@@H](NC(=O)[C@H](CCCNN)NC(=O)[C@@H]4CS[C@@H](C)[C@@H](NC(=O)[C@@H]5CSC[C@@H](NC(=O)/C(=C\C)NC(=O)[C@@H](N)[C@@H](C)CC)C(=O)N[C@@H]([C@@H](C)CC)C(=O)NC(=C)C(=O)N[C@@H]([C@@H](C)CC)C(=O)N5)C(=O)N5CCC[C@H]5C(=O)NCC(=O)N4)C(=O)NCC(=O)N[C@@H](C)C(=O)N[C@@H]([C@@H](C)CC)C(=O)N[C@@H](CCSC)C(=O)NCC(=O)N3)[C@H](C)SC[C@H](NC2=O)C(=O)N[C@H](Cc2cnc[nH]2)C(=O)N1)[C@@H](C)CC)C(C)C)C(=O)N[C@@H](CCCCN)C(=O)O [NISIN] | 2 |  |  | Ratio (Listeria monocytogenes [1]): -32; Ratio (Listeria monocytogenes [3]): 2; Ratio (Listeria monocytogenes [7]): -2; Ratio (Listeria monocytogenes [9]): -16 |
|  |  | CC1=C(C(=O)O)N2C(=O)[C@@H](NC(=O)[C@H](N)c3ccccc3)[C@H]2SC1 [CEPHALEXIN ANHYDROUS] |  | 12.2 | 14.8 |  |
